From PMC4728504, “Determination of FVIIa-sTF Inhibitors in Toxic Microcystis Cyanobacteria by LC-MS Technique” (Marine Drugs, 2015)
“Also recorded” adds a separate entry of the source. Where two headings read alike, the source gives them in different places.

Assays:
fVIIa-sTF [1] = conditions: P1 moiety; cited from earlier work
Excerpt: We have detected aeruginosins 98A (36) and B (37) from M. aeruginosa NIES-98. The MeOH fractions from the aforementioned cyanobacteria are not active in the fVIIa-sTF assay. Thus, from our readings, we compare the fVIIa-sTF inhibitory activity of aeruginosins to phenylamidine. […] The presence of the cyclic amino alcohol moiety in aeruginosins may contribute to efficient binding against fVIIa. However, this hypothesis needs to be established by a structure–ac ...

fVIIa [2] = target: T1, fVIIa (Homo sapiens, UniProt P08709); experiment: fVIIa inhibitory assay (cephalin buffer, without sTF); assay type: biochemical; conditions: for fVIIa inhibition, slow binding, in words: 10 and 1 µg/mL, L-α-cephalin buffer, without sTF, three to six hours; for fVIIa inhibitory activity, in words: concentration not given
T1 construct: purchased Enzyme Research Laboratories, South Bend, IN, USA HFVIIa
T1 sequence (P08709 213-466): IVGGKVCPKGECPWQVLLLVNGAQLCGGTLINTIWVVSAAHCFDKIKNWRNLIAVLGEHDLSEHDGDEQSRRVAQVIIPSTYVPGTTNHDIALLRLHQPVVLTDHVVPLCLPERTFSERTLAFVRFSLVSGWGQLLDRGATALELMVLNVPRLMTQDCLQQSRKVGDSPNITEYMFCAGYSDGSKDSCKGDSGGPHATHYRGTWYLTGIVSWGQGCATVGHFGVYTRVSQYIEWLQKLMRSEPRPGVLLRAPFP
T1 sequence (P08709 61-212): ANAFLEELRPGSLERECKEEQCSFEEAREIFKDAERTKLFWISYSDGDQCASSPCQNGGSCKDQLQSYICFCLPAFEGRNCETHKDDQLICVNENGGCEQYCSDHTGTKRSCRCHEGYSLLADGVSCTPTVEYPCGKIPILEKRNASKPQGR
Protocol: (§1) All assay experiments were done in a cold condition at 4 °C using an ice bucket until pre-incubation and reaction at 37 °C.
(§2) The fVIIa and fVIIa-sTF assays used L-α-cephalin buffer solution. The fVIIa-sTF assay was performed following the procedure by Nakagura et al. with modification. The L-α-cephalin as buffer solution was prepared as follows: Buffer (A): Five hundred milliliters (500 mL) of water was added to 6.057 g of Tris (hydroxymethyl)aminomethane (Nacalai Tesque, Kyoto, Japan) to make 100 mM Tris-HCl solution; 4.383 g NaCl (Nacalai Tesque) was added to the resulting solution to make […], and 500 mg bovine serum albumin (BSA) (Sigma, A7284, St. Louis, MO, USA) was added. The pH was adjusted to 7.40; Buffer (B): A 200 mL of Buffer A was added to 0.3329 g of CaCl2 (Nacalai Tesque). The resulting solution (Buffer B) was adjusted to pH 7.48 before it was stored at 4 °C in preparation for the next day experiment. A 30 µg/mL 3-sn-phosphatidylethanolamine from the bovine brain (Sigma, USA) or L-α-cephalin was added to Buffer B on the day of the experiment.
The 80 µL 3-sn-phosphatidylethanolamine buffer, 50 µL of […] fVIIa enzyme in a buffer, and 20 µL of sample solution were dispensed in each well of a 96-well plate (Iwaki: 3881-096, Tokyo, Japan). The 96-well plate with the solution was pre-incubated at 37 °C for 5 min separately together with 1 mM of Chromozyme t-PA (N-Methylsulfonyl-D-Phe-Gly-Arg-4-nitranilide acetate), from Roche Diagnostics (Mannheim, Germany), dissolved in water as a substrate. The 50 µL of the substrate was added, and the mixture was agitated to start the reaction.
(§3) The human factor VIIa (HFVIIa) enzyme, purchased from Enzyme Research Laboratories, South Bend, IN, USA, was added and adjusted with 20 mM Tris-HCl/0.1 M NaCl/pH 7.4. The final enzyme concentration should be 95.06 µg/mL. The 100 µL enzyme solutions were stored in plastic cryogenic vials (Iwaki: 2712-002, Tokyo, Japan) at −80 °C until use. The fVIIa enzyme, 95.06 µg/mL, and 100 µL volume solution was added to 7.822 mL of 3-sn-phosphatidylethanolamine buffer on the assay preparation.

thrombin = thrombin (Homo sapiens, UniProt P00734); experiment: Thrombin inhibitory assay; assay type: biochemical
fVIIa-sTF [3] = experiment: fVIIa-sTF inhibitory assay; assay type: biochemical, human
Protocol: as §1, §2
The same buffer preparation for fVIIa assay was used for the fVIIa-sTF inhibitory assay. The fVIIa: sTF ratio was 0.30 µg/mL: 0.39 µg/mL, and was prepared in Section 3.3.2.
as §3
The sTF or Recombinant Human Soluble Tissue Factor (F3-28H) or Human F3 was purchased from Creative Biomart, Shirley, NY, USA. The sTF was added with 10 mM PBS, pH 7.4, to make […] (25.624 µg/mL), and transferred in 300 µL volumes in plastic cryogenic vials (Iwaki: 2712-002, Tokyo, Japan), stored at −80 °C until use. The sTF solution (25.624 µg/mL, 300 µL) was added to 4.7 mL of the 3-sn-phosphatidylethanolamine buffer in an amber bottle before use.
The 30 µL buffer, 100 µL fVIIa-sTF, and 20 µL sample solutions were added to a well in a 96-well plate. The solution was pre-incubated at 37 °C for 5 min, together with 1 mM Chromozym t-PA in water as a substrate. A 50-µL substrate was added to start the reaction, agitated, and the absorbance was monitored at 405 nm using Thermo Scientific Multiskan FC microplate photometer.

fVIIa [4] = conditions: cited from earlier work

## N=C(N)c1ccccc1 [phenylamidine]
fVIIa-sTF [1]
  fVIIa-sTF inhibitory activity, in words: inhibitory activity against fVIIa-sTF

## aeruginopeptin 228-B [Compound 3]
fVIIa [2]
  fVIIa inhibition, slow binding, in words: active against fVIIa with slow binding and inhibition from three to six hours

## aeruginosin K139 [Compound 30]
thrombin; aeruginosins or MeOH fractions, concentration not given
  thrombin inhibitory activity, in words: dual inhibitory activity
fVIIa [2]
  fVIIa inhibitory activity, in words: dual inhibitory activity
fVIIa-sTF [3]; dereplication by LC-MS of active fraction, not tested as pure compound
  active compound attributed by LC-MS in fVIIa-sTF active fraction: active component; also recorded: active compound

## microcystin-LR [Compound 18, reference compound]
fVIIa-sTF [3]
  fVIIa-sTF inhibition, in words: not active

## microcystin-RR [Compound 19, reference compound]
fVIIa-sTF [3]
  fVIIa-sTF inhibition, in words: not active

## microcystin-YR [Compound 20, reference compound]
fVIIa-sTF [3]
  fVIIa-sTF inhibition, in words: not active

## oscillapeptilide 97A [Compound 11]
fVIIa [2]
  fVIIa inhibition, slow binding, in words: active against fVIIa with slow binding and inhibition from three to six hours

## oscillapeptin G [Compound 10]
fVIIa [2]
  fVIIa inhibition, slow binding, in words: active against fVIIa with slow binding and inhibition from three to six hours

## oscillarin
fVIIa [4]
  fVIIa inhibition, in words: fVIIa and thrombin inhibitors

## spumigins A [Compound 21]
thrombin; 100 µg/mL, after a long-term storage
  thrombin inhibition, in words: active
fVIIa [2]
  fVIIa inhibitory activity, in words: do not inhibit
fVIIa-sTF [3]; pure compounds or compound class
  fVIIa-sTF inhibition, in words: do not inhibit
